Results published in article PMC11423540, “Synthesis and biological evaluation of ortho-phenyl phenylhydroxamic acids containing phenothiazine with improved selectivity for class IIa histone deacetylases” (Journal of Enzyme Inhibition and Medicinal Chemistry, 2024).

Legend:
[1] = Cell viability (MTT) assay, normal human lung fibroblasts; type: cell-based; settings: normal human lung fibroblasts (NHLF, CC-2512); normal human lung fibroblast cells; read-out: IC50 of cytotoxicity against normal cells
Source text: Human breast cancer MDA-MB-231 cells and gastric cancer SCM-1 cells were purchased from the American Type Culture Collection (Manasas, VA, USA). SCC2095 human oral cancer cells were kindly provided by Professor Susan R. Mallery (The Ohio State University). Normal human lung fibroblasts (NHLFs; CC-2512) were purchased from the Lonza (Walkersville, MD, USA). SCM-1 cells were maintained in RPMI-1640 medium (Invitrogen, Carlsbad, CA, USA); MDA-MB-231 and SCC2095 cells were maintained in DMEM/F12 (Invitrogen); and NHLFs were maintained in FGM™-2 medium (Lonza) with 2% serum, supplemented with 10% heat-inactivated foetal bovine serum (FBS; Gibco, Grand Island, NY, USA). All cells were cultured at 37 °C in a humidified incubator containing 5% CO2 and 95% relative humidity.
To assess cell viability, cells were seeded in three replicates into 96-well plates at a density of 5×10^3/well for 24 h following incubation with compounds at the indicated concentrations. Then, cell viability was assessed with 3–(4,5-dimethylthiazol-2-yl)-2,5-diphenyltetrazolium bromide (MTT) solution (0.5 mg/mL) for 4h as described previously. After removing the medium, 200 µL of DMSO was added, and then the absorbance was measured at 570 nm using a plate reader (BMG LABTECH, Germany).

HDAC7 = molecular target: T1, HDAC7 (Homo sapiens, UniProt Q8WUI4); assay: HDAC inhibition assay, HDAC7
T1 sequence (Q8WUI4 1-952): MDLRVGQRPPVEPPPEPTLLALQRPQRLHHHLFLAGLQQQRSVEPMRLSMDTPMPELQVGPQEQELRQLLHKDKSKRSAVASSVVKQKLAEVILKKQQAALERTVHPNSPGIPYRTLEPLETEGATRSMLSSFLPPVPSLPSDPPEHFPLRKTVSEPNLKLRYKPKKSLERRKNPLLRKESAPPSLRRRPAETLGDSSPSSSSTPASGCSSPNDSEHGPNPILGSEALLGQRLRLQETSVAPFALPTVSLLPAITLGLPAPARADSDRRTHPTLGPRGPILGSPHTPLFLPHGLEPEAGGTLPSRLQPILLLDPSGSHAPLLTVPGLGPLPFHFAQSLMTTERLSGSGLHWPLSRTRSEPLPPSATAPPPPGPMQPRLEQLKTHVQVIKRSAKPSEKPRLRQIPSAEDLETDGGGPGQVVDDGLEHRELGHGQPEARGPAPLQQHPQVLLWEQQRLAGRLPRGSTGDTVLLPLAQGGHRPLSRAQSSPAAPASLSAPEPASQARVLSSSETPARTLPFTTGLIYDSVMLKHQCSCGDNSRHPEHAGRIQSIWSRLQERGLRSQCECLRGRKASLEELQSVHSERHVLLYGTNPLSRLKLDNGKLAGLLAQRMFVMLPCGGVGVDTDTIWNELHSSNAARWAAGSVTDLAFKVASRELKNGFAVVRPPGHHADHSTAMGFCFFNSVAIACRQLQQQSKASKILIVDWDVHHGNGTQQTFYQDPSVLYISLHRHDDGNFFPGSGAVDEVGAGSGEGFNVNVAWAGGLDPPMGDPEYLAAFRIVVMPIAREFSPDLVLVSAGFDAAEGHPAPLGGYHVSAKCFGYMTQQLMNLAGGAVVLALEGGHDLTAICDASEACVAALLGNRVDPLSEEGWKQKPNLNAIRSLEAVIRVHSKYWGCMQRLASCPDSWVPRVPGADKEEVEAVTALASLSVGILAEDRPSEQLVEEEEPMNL

HDAC8 = molecular target: T2, HDAC8 (Homo sapiens, UniProt Q9BY41); assay: HDAC inhibition assay, HDAC8
T2 sequence (Q9BY41 1-377): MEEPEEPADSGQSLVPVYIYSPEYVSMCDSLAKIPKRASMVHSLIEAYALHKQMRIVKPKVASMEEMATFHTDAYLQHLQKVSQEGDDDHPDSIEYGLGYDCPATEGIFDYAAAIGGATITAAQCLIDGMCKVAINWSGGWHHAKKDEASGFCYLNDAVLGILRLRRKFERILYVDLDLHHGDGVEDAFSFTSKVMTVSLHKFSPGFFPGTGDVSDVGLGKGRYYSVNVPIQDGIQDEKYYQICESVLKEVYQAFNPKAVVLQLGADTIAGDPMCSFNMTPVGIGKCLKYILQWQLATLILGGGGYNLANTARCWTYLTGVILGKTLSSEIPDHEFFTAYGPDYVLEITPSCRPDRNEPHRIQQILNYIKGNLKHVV

HDAC4 protein = assay: Surface plasmon resonance binding to HDAC4; settings: Figure S1
Protocol: HDAC4 protein was crosslinked by EDC (1-ethyl-3-(3-dimethylaminopropyl) carbodiimide) and NHS (N-hydroxysuccinimide). The crosslinking reagent and protein were co- incubated 30 minutes at 25°C.
Binding reactivity to mutant HDAC4 protein was performed by SPR (OpenSPR, Nicoyalife). The recombinant HDAC4 protein was crosslinked by EDC/NHC regent, followed by dilution to a concentration of 50 μg/mL with PBS and immobilized onto a amine sensor chip (Nicoyalife). The analytes were tested at various dilutions in PBST, and the flow rate was maintained at 20 μL/min during analysis. The amine sensor chip was regenerated with 10 mM glycine−HCl, pH2.5. The results were analyzed using TraceDrawer software (Nicoyalife).

HDAC4 = HDAC4 (Homo sapiens, UniProt P56524); assay: HDAC inhibition assay, HDAC4
Chain of HDAC4 (P56524 whole entry): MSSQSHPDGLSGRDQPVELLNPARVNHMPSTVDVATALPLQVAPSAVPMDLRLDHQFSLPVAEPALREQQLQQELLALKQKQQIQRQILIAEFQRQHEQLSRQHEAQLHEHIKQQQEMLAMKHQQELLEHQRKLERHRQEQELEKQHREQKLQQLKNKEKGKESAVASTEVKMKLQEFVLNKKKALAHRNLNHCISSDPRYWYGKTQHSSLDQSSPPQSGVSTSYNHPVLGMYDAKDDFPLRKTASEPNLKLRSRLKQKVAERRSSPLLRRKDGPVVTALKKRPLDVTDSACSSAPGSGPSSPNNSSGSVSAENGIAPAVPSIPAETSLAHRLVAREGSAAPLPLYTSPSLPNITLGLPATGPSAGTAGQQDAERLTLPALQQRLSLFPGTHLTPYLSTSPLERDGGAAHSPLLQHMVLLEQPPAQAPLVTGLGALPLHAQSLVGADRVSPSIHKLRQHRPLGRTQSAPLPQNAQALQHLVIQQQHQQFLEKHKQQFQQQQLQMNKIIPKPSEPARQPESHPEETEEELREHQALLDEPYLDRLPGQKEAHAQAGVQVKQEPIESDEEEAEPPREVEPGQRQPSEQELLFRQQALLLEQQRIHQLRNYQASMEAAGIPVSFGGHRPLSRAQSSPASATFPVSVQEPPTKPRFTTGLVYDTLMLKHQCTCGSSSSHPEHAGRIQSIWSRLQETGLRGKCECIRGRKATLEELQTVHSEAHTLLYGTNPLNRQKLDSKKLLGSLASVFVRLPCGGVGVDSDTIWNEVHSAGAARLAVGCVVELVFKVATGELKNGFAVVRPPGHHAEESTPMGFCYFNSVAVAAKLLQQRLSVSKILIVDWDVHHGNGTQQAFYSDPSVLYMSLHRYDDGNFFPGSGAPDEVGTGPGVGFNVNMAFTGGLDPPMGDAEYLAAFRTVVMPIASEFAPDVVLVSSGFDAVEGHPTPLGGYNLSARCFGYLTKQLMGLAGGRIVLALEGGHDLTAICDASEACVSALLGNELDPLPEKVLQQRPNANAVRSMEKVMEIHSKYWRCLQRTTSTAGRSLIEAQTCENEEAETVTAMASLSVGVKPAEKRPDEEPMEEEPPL

NC(=NO)c1ccc2c(c1)N(Cc1ccc(C(=O)NO)c(-c3ccccc3)c1)c1ccccc1S2 [Compound 7g, N-Hydroxy-4-[2-(N’-hydroxycarbamimidoyl)-10H-phenothiazin-10-yl]methyl-2-phenylbenzamide]
IC50 [1]: 8000 nM | IC50 (HDAC7): 190 ± 40 nM | IC50 (HDAC8): 1950 nM | SPR binding to HDAC4 protein (HDAC4 protein): can bind to HDAC4 protein | IC50 (HDAC4): 180 ± 60 nM
